The supplement of paper PMC10307832

Key:
Experiment in all cases: relative viability (nuclei count vs DMSO), 5 days (fraction); higher = more cells survive
PC-3 [JPC-3] = test system: PC-3 [JPC-3]
In short: (§1)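 Relative viability divides the nuclei count in treated wells by that in vehicle wells. Lung cancer cell lines were seeded in 1536-well plates, dosed by pin tool the next day, and fixed and stained after 5 days in one step with final 0.05% Triton X-100, 1% formaldehyde and 1 ug/ml Hoechst. Dosing was a single drug or a fixed anchor-drug dose plus five library-drug doses (not always all listed) in √10 steps, and values are medians of duplicate plates imaged at 4×.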

NCI-H2170 = test system: NCI-H2170
In short: as §1

HOP-62 = test system: HOP-62
In short: as §1

LU99A = test system: LU99A
In short: as §1

LK-2 = test system: LK-2
In short: as §1

EKVX = test system: EKVX
In short: as §1

NCI-H3122 = test system: NCI-H3122
In short: as §1

HCC-827 = test system: HCC-827
In short: as §1

LCLC-97TM1 = test system: LCLC-97TM1
In short: as §1

EPLC-272H = test system: EPLC-272H
In short: as §1

UMC-11 = test system: UMC-11
In short: as §1

SW 1573 = test system: SW 1573
In short: as §1

H3255 = test system: H3255
In short: as §1

NCI-H1650 = test system: NCI-H1650
In short: as §1

NCI-H2228 = test system: NCI-H2228
In short: as §1

NCI-H441 = test system: NCI-H441
In short: as §1

LXF-289 = test system: LXF-289
In short: as §1

NCI-H1355 = test system: NCI-H1355
In short: as §1

NCI-H2405 = test system: NCI-H2405
In short: as §1

ChaGo-K-1 = test system: ChaGo-K-1
In short: as §1

SK-LU-1 = test system: SK-LU-1
In short: as §1

Structure (SMILES): Cc1cn(-c2cc(NC(=O)c3ccc(C)c(Nc4nccc(-c5cccnc5)n4)c3)cc(C(F)(F)F)c2)cn1 [Nilotinib] + CC1(C)CCC(c2ccc(Cl)cc2)=C(CN2CCN(c3ccc(C(=O)NS(=O)(=O)c4ccc(N[C@H](CCN5CCOCC5)CSc5ccccc5)c(S(=O)(=O)C(F)(F)F)c4)cc3)CC2)C1 [Navitoclax] (partner 0.5 µM)
- relative viability (PC-3 [JPC-3]; first compound 0.001 µM): 0.699
- relative viability (PC-3 [JPC-3]; first compound 0.003162 µM): 1
- relative viability (PC-3 [JPC-3]; first compound 0.01 µM): 0.888
- relative viability (PC-3 [JPC-3]; first compound 0.03162 µM): 0.666
- relative viability (PC-3 [JPC-3]; first compound 0.1 µM): 0.741
- relative viability (NCI-H2170; first compound 0.001 µM): 0.483
- relative viability (NCI-H2170; first compound 0.003162 µM): 0.64
- relative viability (NCI-H2170; first compound 0.01 µM): 0.716
- relative viability (NCI-H2170; first compound 0.03162 µM): 0.56
- relative viability (NCI-H2170; first compound 0.1 µM): 0.771
- relative viability (HOP-62; first compound 0.001 µM): 0.832
- relative viability (HOP-62; first compound 0.003162 µM): 1.05
- relative viability (HOP-62; first compound 0.01 µM): 1.24
- relative viability (HOP-62; first compound 0.03162 µM): 0.94
- relative viability (HOP-62; first compound 0.1 µM): 0.454
- relative viability (LU99A; first compound 0.001 µM): 0.761
- relative viability (LU99A; first compound 0.003162 µM): 0.904
- relative viability (LU99A; first compound 0.01 µM): 0.985
- relative viability (LU99A; first compound 0.03162 µM): 0.76
- relative viability (LU99A; first compound 0.1 µM): 0.479
- relative viability (LK-2; first compound 0.001 µM): 0.759
- relative viability (LK-2; first compound 0.003162 µM): 0.939
- relative viability (LK-2; first compound 0.01 µM): 1
- relative viability (LK-2; first compound 0.03162 µM): 0.743
- relative viability (LK-2; first compound 0.1 µM): 0.945
- relative viability (EKVX; first compound 0.001 µM): 0.795
- relative viability (EKVX; first compound 0.003162 µM): 1.29
- relative viability (EKVX; first compound 0.01 µM): 1.42
- relative viability (EKVX; first compound 0.03162 µM): 0.764
- relative viability (EKVX; first compound 0.1 µM): 1.21
- relative viability (NCI-H3122; first compound 0.001 µM): 1.09
- relative viability (NCI-H3122; first compound 0.003162 µM): 1.12
- relative viability (NCI-H3122; first compound 0.01 µM): 1.09
- relative viability (NCI-H3122; first compound 0.1 µM): 0.831
- relative viability (HCC-827; first compound 0.001 µM): 1.02
- relative viability (HCC-827; first compound 0.003162 µM): 1.08
- relative viability (HCC-827; first compound 0.01 µM): 1.1
- relative viability (HCC-827; first compound 0.1 µM): 1
- relative viability (LCLC-97TM1; first compound 0.001 µM): 0.322
- relative viability (LCLC-97TM1; first compound 0.003162 µM): 0.425
- relative viability (LCLC-97TM1; first compound 0.01 µM): 0.478
- relative viability (LCLC-97TM1; first compound 0.03162 µM): 0.445
- relative viability (LCLC-97TM1; first compound 0.1 µM): 0.379
- relative viability (EPLC-272H; first compound 0.001 µM): 1.1
- relative viability (EPLC-272H; first compound 0.003162 µM): 1.32
- relative viability (EPLC-272H; first compound 0.01 µM): 1.5
- relative viability (EPLC-272H; first compound 0.03162 µM): 0.804
- relative viability (EPLC-272H; first compound 0.1 µM): 1.28
- relative viability (UMC-11; first compound 0.001 µM): 0.303
- relative viability (UMC-11; first compound 0.003162 µM): 0.303
- relative viability (UMC-11; first compound 0.01 µM): 0.317
- relative viability (UMC-11; first compound 0.1 µM): 0.301
- relative viability (SW 1573; first compound 0.001 µM): 1.05
- relative viability (SW 1573; first compound 0.003162 µM): 1.23
- relative viability (SW 1573; first compound 0.01 µM): 1.14
- relative viability (SW 1573; first compound 0.03162 µM): 0.792
- relative viability (SW 1573; first compound 0.1 µM): 1.01
- relative viability (H3255; first compound 0.001 µM): 0.508
- relative viability (H3255; first compound 0.003162 µM): 0.479
- relative viability (H3255; first compound 0.01 µM): 0.541
- relative viability (H3255; first compound 0.03162 µM): 0.246
- relative viability (H3255; first compound 0.1 µM): 0.382
- relative viability (NCI-H1650; first compound 0.001 µM): 1.15
- relative viability (NCI-H1650; first compound 0.003162 µM): 1.26
- relative viability (NCI-H1650; first compound 0.01 µM): 1.45
- relative viability (NCI-H1650; first compound 0.03162 µM): 0.99
- relative viability (NCI-H1650; first compound 0.1 µM): 1.11
- relative viability (NCI-H2228; first compound 0.001 µM): 0.662
- relative viability (NCI-H2228; first compound 0.003162 µM): 1.1
- relative viability (NCI-H2228; first compound 0.01 µM): 0.927
- relative viability (NCI-H2228; first compound 0.03162 µM): 0.826
- relative viability (NCI-H2228; first compound 0.1 µM): 0.763
- relative viability (NCI-H441; first compound 0.001 µM): 0.499
- relative viability (NCI-H441; first compound 0.003162 µM): 0.667
- relative viability (NCI-H441; first compound 0.01 µM): 0.568
- relative viability (NCI-H441; first compound 0.1 µM): 0.493
- relative viability (LXF-289; first compound 0.001 µM): 0.904
- relative viability (LXF-289; first compound 0.003162 µM): 1.09
- relative viability (LXF-289; first compound 0.01 µM): 1.05
- relative viability (LXF-289; first compound 0.03162 µM): 0.855
- relative viability (LXF-289; first compound 0.1 µM): 0.878
- relative viability (NCI-H1355; first compound 0.001 µM): 1
- relative viability (NCI-H1355; first compound 0.003162 µM): 1.14
- relative viability (NCI-H1355; first compound 0.01 µM): 1.12
- relative viability (NCI-H1355; first compound 0.03162 µM): 0.928
- relative viability (NCI-H1355; first compound 0.1 µM): 0.893
- relative viability (NCI-H2405; first compound 0.001 µM): 0.733
- relative viability (NCI-H2405; first compound 0.003162 µM): 0.761
- relative viability (NCI-H2405; first compound 0.01 µM): 0.764
- relative viability (NCI-H2405; first compound 0.03162 µM): 0.596
- relative viability (NCI-H2405; first compound 0.1 µM): 0.439
- relative viability (ChaGo-K-1; first compound 0.001 µM): 1.47
- relative viability (ChaGo-K-1; first compound 0.003162 µM): 0.924
- relative viability (ChaGo-K-1; first compound 0.01 µM): 1.06
- relative viability (ChaGo-K-1; first compound 0.03162 µM): 0.754
- relative viability (ChaGo-K-1; first compound 0.1 µM): 0.787
- relative viability (SK-LU-1; first compound 0.001 µM): 0.703
- relative viability (SK-LU-1; first compound 0.003162 µM): 1.17
- relative viability (SK-LU-1; first compound 0.01 µM): 1.14
- relative viability (SK-LU-1; first compound 0.03162 µM): 0.582
- relative viability (SK-LU-1; first compound 0.1 µM): 0.827
